Assays:
female sticklebacks = assay: Flow channel odour preference / mate choice experiment with sticklebacks; type: in vivo, Gasterosteus aculeatus
Description: The source of sticklebacks has been described (7). The flow channel set-up to evaluate mate choice determines odour preference, as a precursor of mate choice. Water was taken from the tank of a single male per trial and used both as stimulus (after addition of peptide(s)) and control (after addition of solvent) water. Peptides were added to the bottle with stimulus water just before the experiment at a final concentration of 1 mM; this becomes diluted to 5 nM in the water column passing through the test compartment. The following nona-peptides were used, MHC specificities indicated in brackets: […] (H2-K^b); […] and AAPDNRETF (H2-D^b); SYFPEITHI and SYIPSAEKI (H2-K^d). Peptides were synthesized by solid-phase 9-fluorenylmethoxycarbonyl chemistry. In experiments using a single peptide, AAPDNRETF was used. All experiments were performed in double-blinded fashion as described. Statistical analysis was performed with JMP 4.
The binding preferences for peptides of MHC molecules of sticklebacks are unknown; therefore synthetic peptides derived from endogenous mouse and viral proteins that are ligands for different mouse MHC molecules were used. Such peptides almost certainly appear foreign to sticklebacks irrespective of their MHC genotypes. Gravid females prefer water from a tank harbouring a male to that from a tank with fresh water (Experiment A, Table 1). Therefore, it was tested whether addition of peptide(s) to water from individual males would alter the outcome of mate choice. Gravid females were presented with water from single males with and without the addition of a mixture of five different peptides in the two columns of a flow-channel.

human beings = assay: Odour evaluation of paired aqueous solutions by test persons (similar or different); type: in vivo; settings: 0.5 mM in phosphate buffered saline
Description: Several individuals were asked to evaluate the odour of a number of aqueous solutions. A prototypical MHC class I peptide (SLLPAIVEL), a known ligand of the A′02xx allele, or an equimolar mixture of the corresponding amino acids (S, L, P, A, I, V, E) were added to solvent (phosphate buffered saline) at final concentrations of 0.5 mM. These solutions were offered in pairs and the test persons were asked to decide whether the two solutions smelled similar or different. The probands easily distinguish peptides from amino acids.

[1] = Test pair Peptide vs. Amino acids

Sequence	Time spent on side of water source 2 (female sticklebacks; Experiment B, gravid females, Fresh + 1 peptide vs Fresh + solvent, 5 nM in water column, n=24) [s]	Attractiveness of peptide in plain tank water (in words) (female sticklebacks; Experiment B, gravid females, plain tank water)	Time spent on side of water source 2 (female sticklebacks; Experiment C, gravid females, Male + 1 peptide vs Male + solvent, 5 nM, n=25) [s]	Time spent on side of water source 2 (female sticklebacks; Experiment C, gravid females, Male + 1 peptide vs Male + solvent, 5 nM, n=25, listed as one peptide) [s]	Time spent on side of water source 2 (female sticklebacks; Experiment E, non-gravid females, Male + 1 peptide vs Male + solvent, 5 nM, n=25) [s]	Preference for male water with vs without peptide (in words) (female sticklebacks; Experiment E, non-gravid fish, male water)	Excess time spent on the side of peptide-supplemented male water (female sticklebacks; gravid females, male water, excess over 300 sec) [s]	Probands scoring difference (human beings; [1])	Probands scoring difference (fraction) (human beings; [1])	Probands scoring difference (human beings; Test pair Peptide vs. Peptide)	Probands scoring difference (fraction) (human beings; Test pair Peptide vs. Peptide)
AAPDNRETF [1 peptide, synthetic nona-peptide, H2-D^b ligand; used in experiments using a single peptide]	291.8 ± 24.6	not attractive	327.7 ± 24.8	327.7 ± 24.8	308.1 ± 23.5	no preference was observed	27.7 ± 12.4	–	–	–	–
SLLPAIVEL [Peptide, prototypical MHC class I peptide, known ligand of the A*02xx allele]	–	–	–	–	–	–	–	13/14	(0.93)	1/14	(0.07)
